Assays:
[1] = design: method as in PMID 30236787; details: vs NHE; cited from earlier work
[2] = tested on: MCF-7 breast cancer cells; assay: MTT cytotoxicity assay, MCF-7; details: read-out: IC50 MCF-7, 10^4 cells, 72 h exposure
Description: (§1) Cells were grown as monolayers in 75 cm^2 culture flasks (Starlab, Hamburg, Germany) at 37 °C in a humidified atmosphere containing 5% CO2.
(§2) The cytotoxic activity of the compounds was determined by the 3-(4,5-dimethylthiazol-2-yl)-2,5-diphenyl-2H-tetrazolium bromide (MTT) assay (obtained from Acros Organics, Geel, Belgium) in at least three independent experiments. […] Furthermore, 1 × 10^4 cells of Colo205, Colo320, and MCF-7 as well as MRC-5 were seeded overnight prior to the assay with 72 h exposure to the compounds tested. […] In the case of the metal complexes, we first mixed the ligand and the aqueous metal salt solution (c = 10 mM) in the appropriate ratio followed by dilution with the medium. The metal salts dissolved in the same way were also tested.
(§3) MTT assays with the cell lines Colo205, Colo320, MCF-7, and MRC-5 were performed after addition of the substances and a subsequent 72 h incubation time. At the end of the incubation period, 20 μL of the MTT solution (from a stock solution of 5 mg/mL) was added to each well. After the staining, the plates were incubated at 37 °C for 4 h, then 100 μL of SDS solution (10% in 0.01 M HCI) was added to each well, and the plates were incubated at 37 °C overnight. The optical density (OD) was determined at 540/630 nm with a Multiscan EX ELISA reader (Thermo Labsystems).
(§4) The IC50 values, i.e., the concentrations resulting in half the number of viable cells relative to untreated controls, were interpolated from concentration–effect curves of at least three independent experiments.

[3] = tested on: Colo320 (doxorubicin-resistant) colon adenocarcinoma cells; assay: MTT cytotoxicity assay, Colo320; details: read-out: IC50 Colo320, 10^4 cells, 72 h exposure
Description: as §1, §2, §3, §4

[4] = tested on: MRC-5 normal embryonal lung fibroblasts; assay: MTT cytotoxicity assay, MRC-5; details: read-out: IC50 MRC-5, 10^4 cells, 72 h exposure, nontumoral fibroblasts
Description: as §1, §2, §3, §4

[5] = tested on: SW480 colon carcinoma cells; assay: MTT cytotoxicity assay, SW480; details: read-out: IC50 SW480, 2 × 10^3 cells, 96 h exposure
Description: (§5) CH1/PA-1 (provided by L.R. Kelland, CRC Centre for Cancer Therapeutics, Institute of Cancer Research, Sutton, UK; confirmed by STR profiling as PA-1 ovarian teratocarcinoma cells at Multiplexion, Heidelberg, Germany), SW480 colon carcinoma, and A549 non-small-cell lung cancer cells (both obtained from the American Type Culture Collection, Manassas, VA, USA) were maintained in a minimal essential medium (MEM) supplemented with 1 mM sodium pyruvate, 4 mM L-glutamine, 1% (v/v) nonessential amino acids from 100-fold stock (all purchased from Sigma-Aldrich), and 10% heat-inactivated fetal bovine serum (FBS; BioWest, Nuaillé, France).
as §1
(§6) The cytotoxic activity of the compounds was determined by the 3-(4,5-dimethylthiazol-2-yl)-2,5-diphenyl-2H-tetrazolium bromide (MTT) assay (obtained from Acros Organics, Geel, Belgium) in at least three independent experiments. A total of 1 × 10^3 CH1/PA-1, 2 × 10^3 SW480, and 3 × 10^3 A549 cells were seeded at 100 μL per well into 96-well microculture plates (Starlab, Hamburg, Germany) 24 h before a treatment with the test compounds for a period of 96 h. […] In the case of the metal complexes, we first mixed the ligand and the aqueous metal salt solution (c = 10 mM) in the appropriate ratio followed by dilution with the medium.
(§7) CH1/PA-1, SW480, and A549 cells were treated with 100 μL/well of the test compounds serially diluted in complete MEM. […] After 4 h incubation, the MTT-containing medium was replaced with 150 μL DMSO per well to dissolve the formazan product formed by viable cells.
as §4

[6] = tested on: CH1/PA-1 ovarian teratocarcinoma cells; assay: MTT cytotoxicity assay, CH1/PA-1; details: read-out: IC50 CH1/PA-1, 10^3 cells, 96 h exposure
Description: as §5, §1, §6, §7, §4

[7] = tested on: A549 non-small-cell lung cancer cells; assay: MTT cytotoxicity assay, A549; details: read-out: IC50 A549, 3 × 10^3 cells, 96 h exposure
Description: as §5, §1, §6, §7, §4

[8] = tested on: Colo205 colon adenocarcinoma cells; assay: MTT cytotoxicity assay, Colo205; details: read-out: IC50 Colo205, 10^4 cells, 72 h exposure
Description: as §1, §2, §3, §4

Structure (SMILES) | redox potential of the Fe(III)/Fe(II) complexes of the ligand [1] | IC50 [2] [µM] | IC50 [3] [µM] | IC50 [4] [µM] | IC50 [5] [µM] | IC50 [6] [µM] | IC50 [7] [µM] | IC50 [8] [µM]
c1cnc2c(c1)ccc1cccnc12 [1,10-phenantroline] | +1130 mV |  |  |  |  |  |  | 
c1ccc(-c2ccccn2)nc1 [2,2-bipiyridine] | +1100 mV |  |  |  |  |  |  | 
[Cl][Cu][Cl] [CuCl2] |  | > 10 | > 10 | > 10 | 154 ± 21 | 28 ± 5 | 142 ± 16 | > 10
[Cl][Fe]([Cl])[Cl] [FeCl3] |  | > 10 | > 10 | > 10 | > 200 | > 200 | > 200 | > 10
[Cl-].[Cl-].[Zn+2] [ZnCl2] |  | > 10 | > 10 | > 10 | 125 ± 16 | 66 ± 3 | 123 ± 9 | > 10
O=C(O)c1ccc(-n2nc(-c3ccccc3O)nc2-c2ccccc2O)cc1 [deferasirox] | −400 mV |  |  |  |  |  |  | 
Cc1c(O)c(=O)ccn1C [deferiprone] | −620 mV |  |  |  |  |  |  | 
CC(=O)N(O)CCCCCNC(=O)CCC(=O)N(O)CCCCCNC(=O)CCC(=O)N(O)CCCCCN [deferoxamine B] | −450 mV |  |  |  |  |  |  | 

— article PMC10848209, “A Comparative Study on the Complexation of the Anticancer Iron Chelator VLX600 with Essential Metal Ions” (Inorganic Chemistry, 2024)
